US20080008669A1, “Photostable sunscreen compositions comprising cinnamate ester UV-B filters and s-triazine compounds” (L'OREAL, priority 2006, published 2008)

Assay: Measurement of photostability of the cinnamate UV-B filter in emulsion formulas on PMMA plates under SUN TEST xenon lamp
Type: physicochemical
Conditions: Formulas 9-11 (1-4% of Example 1) compared with control Formula 8

CCCCOC(=O)c1ccc(Nc2nc(Nc3ccc(C=C(C(=O)OCC(C)(C)C)C(=O)OCC(C)(C)C)cc3)nc(Nc3ccc(C=C(C(=O)OCC(C)(C)C)C(=O)OCC(C)(C)C)cc3)n2)cc1 [Example 1, 2,4-bis-(dineopentyl 4′-aminobenzalmalonate)-6-(butyl 4″-aminobenzoate)-s-triazine]
Photostability of the cinnamate ester in the presence of the compound: improvement in the photostability of the cinnamate ester is clearly seen
